Laboratory results published in US8008456B2, “Compositions containing, methods involving, and uses of non-natural amino acids and polypeptides” (Ambrx, Inc., priority 2004, dated 2011).

Test: pH stability tests
Assay type: physicochemical
Protocol: This example provides the results of pH stability tests that were conducted on certain illustrative non-natural amino acids as an aid for predicting their properties for incorporation into non-natural amino acid polypeptides.

COCCOC(=O)NCCO/N=C(\C)COc1ccccc1
pH stability (pH 4.0, 1 hour): 2%
pH stability (pH 4.0, 1 day): 5%
pH stability (pH 4.0, 2 days): 5%
pH stability (pH 4.0, 3 days): 5%
pH stability (pH 4.0, 4 days): 8%
pH stability (pH 4.0, 5 days): 8%
pH stability (pH 4.0, 6 days): 8%
pH stability (pH 4.0, 7 days): 9%
pH stability (pH 4.0, 10 days): 10%
pH stability (pH 5.0, 1 hour): <1%
pH stability (pH 5.0, 1 day): 5%
pH stability (pH 5.0, 2 days): 5%
pH stability (pH 5.0, 3 days): 5%
pH stability (pH 5.0, 4 days): 5%
pH stability (pH 5.0, 5 days): 5%
pH stability (pH 5.0, 6 days): 5%
pH stability (pH 5.0, 7 days): 5%
pH stability (pH 5.0, 10 days): 5%
pH stability (pH 6.5, 1 hour): <1%
pH stability (pH 6.5, 1 day): <1%
pH stability (pH 6.5, 2 days): <1%
pH stability (pH 6.5, 3 days): <1%
pH stability (pH 6.5, 4 days): <1%
pH stability (pH 6.5, 5 days): <1%
pH stability (pH 6.5, 6 days): <1%
pH stability (pH 6.5, 7 days): <1%
pH stability (pH 6.5, 10 days): <1%
pH stability (pH 7.4, 1 hour): <1%
pH stability (pH 7.4, 1 day): 15%
pH stability (pH 7.4, 2 days): 15%
pH stability (pH 7.4, 3 days): 15%
pH stability (pH 7.4, 4 days): 15%
pH stability (pH 7.4, 5 days): 15%
pH stability (pH 7.4, 6 days): 15%
pH stability (pH 7.4, 7 days): 15%
pH stability (pH 7.4, 10 days): 15%
pH stability (pH 8.0, 1 hour): <1%
pH stability (pH 8.0, 1 day): 35%
pH stability (pH 8.0, 2 days): 38%
pH stability (pH 8.0, 3 days): 40%
pH stability (pH 8.0, 4 days): 45%
pH stability (pH 8.0, 5 days): 45%
pH stability (pH 8.0, 6 days): 45%
pH stability (pH 8.0, 7 days): 45%
pH stability (pH 8.0, 10 days): 45%

COCCOC(=O)NCCO/N=C(\C)C(=O)Nc1ccccc1 [drawing 138]
pH stability (pH 4.0, 1 hour): 4.0%
pH stability (pH 4.0, 1 day): <1%
pH stability (pH 4.0, 2 days): <1%
pH stability (pH 4.0, 3 days): <1%
pH stability (pH 4.0, 4 days): <1%
pH stability (pH 4.0, 5 days): <1%
pH stability (pH 4.0, 6 days): <1%
pH stability (pH 4.0, 7 days): <1%
pH stability (pH 4.0, 10 days): <1%
pH stability (pH 5.0, 1 hour): 5.0%
pH stability (pH 5.0, 1 day): <1%
pH stability (pH 5.0, 2 days): <1%
pH stability (pH 5.0, 3 days): <1%
pH stability (pH 5.0, 4 days): <1%
pH stability (pH 5.0, 5 days): <1%
pH stability (pH 5.0, 6 days): <1%
pH stability (pH 5.0, 7 days): <1%
pH stability (pH 5.0, 10 days): <1%
pH stability (pH 6.5, 1 hour): 6.5%
pH stability (pH 6.5, 1 day): <1%
pH stability (pH 6.5, 2 days): <1%
pH stability (pH 6.5, 3 days): <1%
pH stability (pH 6.5, 4 days): <1%
pH stability (pH 6.5, 5 days): <1%
pH stability (pH 6.5, 6 days): <1%
pH stability (pH 6.5, 7 days): <1%
pH stability (pH 6.5, 10 days): <1%
pH stability (pH 7.4, 1 hour): 7.4%
pH stability (pH 7.4, 1 day): <1%
pH stability (pH 7.4, 2 days): <1%
pH stability (pH 7.4, 3 days): <1%
pH stability (pH 7.4, 4 days): <1%
pH stability (pH 7.4, 5 days): <1%
pH stability (pH 7.4, 6 days): <1%
pH stability (pH 7.4, 7 days): <1%
pH stability (pH 7.4, 10 days): <1%
pH stability (pH 8.0, 1 hour): 8.0%
pH stability (pH 8.0, 1 day): <1%
pH stability (pH 8.0, 2 days): <1%
pH stability (pH 8.0, 3 days): <1%
pH stability (pH 8.0, 4 days): <1%
pH stability (pH 8.0, 5 days): <1%
pH stability (pH 8.0, 6 days): <1%
pH stability (pH 8.0, 7 days): <1%
pH stability (pH 8.0, 10 days): <1%
